Source: patent US20160115540A1, “PRODRUGS AND DRUGS” (Biogen MA Inc., priority 2013, published 2016)
Structures can show the parent of a compound that is named as a salt.

System: jejunum
Test: Transcriptional profiling on Affymetrix GeneChips, single dose, naïve mice: jejunum
Format: in vivo, C57BL/6 mice
Settings: for Number of differentially expressed genes identified: Jenjunum: Naïve, Single Dose, 100 mpk, vs Vehicle
Procedure: Treated mice were sacrificed at 2, 7, or 12 hours. Tissues (liver, spleen, kidney, jejunum, cortex, hippocampus, striatum and whole blood) were collected and analyzed by transcriptional profiling on mouse Affymetrix GeneChips.
Tissues (liver, spleen, kidney, jejunum, cortex, hippocampus, striatum and whole blood) were collected and analyzed by transcriptional profiling on mouse Affymetrix GeneChips.
Animals were exposed to CO2 and whole blood collected via cardiac puncture. Two 100 μl aliquots of whole blood were collected in 1.5 mL microcentrifuge tubes and snap frozen in liquid nitrogen. Peripheral (liver, spleen, kidney and jejunum) and CNS brain (cerebellum, hippocampus, striatum and cortex) tissues were harvested and snap frozen in liquid nitrogen, with special care taken to collect tissues of similar size and from the same location. All samples were stored at −80° C. until RNA extraction was conducted.
For RNA preparation, frozen tissues were placed in 2 mL RNAse-free 96-well blocks with 1.5 mL QIAzol Lysis Reagent (QIAgen) and a 3.2 mm stainless steel bead (BioSpec Products, Bartlesville, Okla.). Tissues were disrupted for four cycles of 45 seconds in a Mini-Beadbeater (Biospec Products). RNA was extracted in chloroform and the aqueous phase was mixed with an equal volume of 70% ethanol. Extracted RNA was applied to RNeasy 96 plates and purified by the spin method according to the manufacturer's protocol (RNeasy 96 Universal Tissue Protocol, QIAgen, Hilden Germany).
Automated sample amplifications and biotin labelings were carried out using the NuGEN Ovation RNA Amplification system V2 (Cat #3100), Ovation WB reagent (Cat #1300) and Encore Biotin module (Cat #4200) (NuGEN Technologies, Inc, San Carlos, Calif.) according to manufacturer's recommendations using an Arrayplex automated liquid handler (Beckman Coulter, Indianapolis, Ind.). Two micrograms of biotin labeled sscDNA probe were hybridized to Affymetrix GeneChip Affymetrix HT_MG-430_PM plate arrays with modified conditions as described in Allaire et al. Washing and staining of the hybridized arrays were completed as described in the GeneChip Expression analysis technical manual for HT plate arrays using the Genechip® Array Station (Affymetrix, Santa Clara, Calif.) with modifications as described in Allaire et al. The processed GeneChip® plate arrays were scanned using GeneTitan scanner (Affymetrix, Santa Clara, Calif.).
Affymetrix scans were subject to quality control (QC) measures. These tests included a visual inspection of the distribution of raw signal intensities and an assessment of RNA degradation, relative log expression (RLE), and normalized unsealed standard error (NUSE). All sample scans that passed these QC metrics were included in the analysis.
All CEL files were subjected to GC-content-based Robust Multi-array Average (GCRMA) normalization (version 2.20.0) (Irizarry R A, et al. Nucleic Acids Res 2003; 31:e15; Li C, et al. Genome Biol 2001; 2:[…]0032). Expression levels were log (base 2) transformed.
All calculations and analyses were carried out using R (version 2.11.1) and Bioconductor computational tools (Gentleman R. Springer Science+Business Media 2005).

[1] = jejunum, 2 hr after single 100 mg/kg oral dose
[2] = jejunum, 7 hr after single 100 mg/kg oral dose
[3] = jejunum, 12 hr after single 100 mg/kg oral dose

## COC(=O)/C=C/C(=O)O [MMF, monomethyl fumarate]
Jejunum, 7 hr
  Gstm7 (1419072_PM_at) differential expression: 1.97
  Htatip2 (1451814_PM_a_at) differential expression: 1.68
  Ifit1 (1450783_PM_at) differential expression: −1.95
  Matn2 (1419442_PM_at) differential expression: 1.59
  Me1 (1416632_PM_at) differential expression: 2.01
  Nqo1 (1423627_PM_at) differential expression: 2.63
  Pgd (1423706_PM_a_at) differential expression: 1.55
  Pgm2 (1437240_PM_at) differential expression: 1.54
  Pir (1429001_PM_at) differential expression: 5.12
  Prss8 (1418320_PM_at) differential expression: 1.75
  Rsad2 (1436058_PM_at) differential expression: −1.81
  Rtp4 (1418580_PM_at) differential expression: −1.61
  Setd4 (1435405_PM_at) differential expression: 2.27
  Slc5a4b (1422757_PM_at) differential expression: 1.79
  Slc35e3 (1428805_PM_at) differential expression: 1.67
  Txnrd1 (1424487_PM_x_at) differential expression: 2.07
  Ugt2b5 (1419622_PM_at) differential expression: 4.50
  Ugt2b36 (1455595_PM_at) differential expression: 2.50
Jejunum, 12 hr
  Abcc3 (1428988_PM_at) differential expression: 2.10
  Acsm5 (1437662_PM_at) differential expression: 1.95
  Akr1c12 (1422000_PM_at) differential expression: 1.52
  Akr1c12 /// Akr1c13 (1450455_PM_s_at) differential expression: 1.76
  Akr1c13 (1418672_PM_at) differential expression: 2.01
  Aldh1a7 (1418601_PM_at) differential expression: 1.74
  Apob (1457554_PM_at) differential expression: −1.54
  Blvrb (1451386_PM_at) differential expression: 1.54
  Ces1e (1419510_PM_at) differential expression: 2.77
  Dio1 (1417991_PM_at) differential expression: −1.51
  Ephx1 (1422438_PM_at) differential expression: 2.17
  Fst (1434458_PM_at) differential expression: 1.94
  G6pd2 /// G6pdx (1422327_PM_s_at) differential expression: 1.83
  Gm3776 /// Gsta1 /// Gsta2 (1421041_PM_s_at) differential expression: 2.09
  Gpx2 (1449279_PM_at) differential expression: 1.54
  Gsr (1421816_PM_at) differential expression: 2.67
  Gss (1441931_PM_x_at) differential expression: 1.55
  Gsta3 (1423436_PM_at) differential expression: 10.80
  Gsta4 (1416368_PM_at) differential expression: 2.66
  Gstm1 (1416416_PM_x_at) differential expression: 3.70
  Gstm2 (1416411_PM_at) differential expression: 2.20
  Gstm4 (1424835_PM_at) differential expression: 5.43
  Gstm6 (1422072_PM_a_at) differential expression: 2.19
  Kif1b (1451642_PM_at) differential expression: −1.51
  Nqo1 (1423627_PM_at) differential expression: 2.34
  Pir (1429001_PM_at) differential expression: 4.19
  Setd4 (1435405_PM_at) differential expression: 1.60
  Slc5a4b (1422757_PM_at) differential expression: 2.16
  Ugt2b5 (1419622_PM_at) differential expression: 5.00
  Ugt2b36 (1455595_PM_at) differential expression: 3.03
2 h after last dosing
  Number of differentially expressed genes identified: Jenjunum: 67
7 h after last dosing
  Number of differentially expressed genes identified: Jenjunum: 74
12 h after last dosing
  Number of differentially expressed genes identified: Jenjunum: 45
[1]
  6-Sep (septin 6) mRNA fold change vs vehicle: 1.56
  Bmp2 mRNA fold change vs vehicle: −1.55
  Figf mRNA fold change vs vehicle: 1.63
  Gabarapl1 mRNA fold change vs vehicle: 1.52
  Hfe mRNA fold change vs vehicle: 1.73
  Hmox1 mRNA fold change vs vehicle: 1.81
  Lpin2 mRNA fold change vs vehicle: 1.61
  Lrp8 mRNA fold change vs vehicle: 2.23
  Prr5l mRNA fold change vs vehicle: −1.64
  Slc2a1 mRNA fold change vs vehicle: 1.68
  Slc48a1 mRNA fold change vs vehicle: 1.62
  Slfn2 mRNA fold change vs vehicle: −1.82
  Sos1 mRNA fold change vs vehicle: −1.57
  St3gal6 mRNA fold change vs vehicle: 1.52
  Tkt mRNA fold change vs vehicle: 1.73
  Tnfaip3 mRNA fold change vs vehicle: −1.67
[2]
  Abcc2 mRNA fold change vs vehicle: 1.51
  Asns mRNA fold change vs vehicle: 1.60
  Capn13 mRNA fold change vs vehicle: −1.75
  Enkur mRNA fold change vs vehicle: −1.56
  Fam162a mRNA fold change vs vehicle: 1.67
  Gm14446 mRNA fold change vs vehicle: −1.65
  Gstm7 mRNA fold change vs vehicle: 1.97
  Ifit1 mRNA fold change vs vehicle: −1.95
  Matn2 mRNA fold change vs vehicle: 1.59
  Me1 mRNA fold change vs vehicle: 2.01
  Pgd mRNA fold change vs vehicle: 1.55
  Rsad2 mRNA fold change vs vehicle: −1.81
  Rtp4 mRNA fold change vs vehicle: −1.61
[3]
  Akr1c12 mRNA fold change vs vehicle: 1.52
  Apob mRNA fold change vs vehicle: −1.54
  Dio1 mRNA fold change vs vehicle: −1.51
  Ephx1 mRNA fold change vs vehicle: 2.17
  Fst mRNA fold change vs vehicle: 1.94
  Kif1b mRNA fold change vs vehicle: −1.51
